{
  "source": "patent US20080051379A1",
  "about": "“Compositions and Methods for the Treatment of Peripheral B-Cell Neoplasms” (Trustees of Boston University, priority 2004, published 2008)",
  "key": {"[1]": {"system": "PDE4", "details": "cited from earlier work"}, "[2]": {"system": "cAMP levels in CCRF-CEM cells", "test": "cAMP RIA, CCRF-CEM cells", "assay_type": "cell-based, human", "details": "30 minutes, 10 μM rolipram, 10 μM forskolin, 1 μM hydrocortisone, three experiments", "experimental": "(§1) Leukemic cells from six B-CLL patients or CCRF-CEM cells were incubated for 30 minutes with media alone (CT), 10 μM rolipram (Roli), 10 μM forskolin (Fsk), 1 μM hydrocortisone (HC), or the same concentration of hydrocortisone combined with rolipram (Roli/HC) or forskolin (Fsk/HC). Lysates of the cells were then assayed for cAMP using a RIA. The cAMP level obtained from each treated B-CLL sample was normalized to that observed in the untreated leukemic cells. The CCRF-CEM data shown are representative of three experiments performed.\n(§2) 500,000 B-CLL or CCRF-CEM cells were incubated for 30 minutes in one mL media alone or with the addition of drugs. Cells were centrifuged and lysed in 80% ethanol. After vortexing and incubation on ice for 10 minutes, cellular debris was removed by re-centrifugation. The supernatant was dried in a Speedivac and the sample brought up in 250 μL of sample buffer as provided by the makers of a cAMP RIA kit (Amersham). 100 μL of this sample was used for each cAMP assay. The RIA kit was used according to the manufacturer's instructions."}, "[3]": {"system": "cAMP levels in B-CLL cells", "test": "cAMP RIA, B-CLL cells", "assay_type": "cell-based, human", "details": "10 μM rolipram for 30 minutes; six B-CLL patients; p<0.04", "experimental": "as §1, §2"}, "[4]": {"system": "peripheral blood T cells", "test": "Hoechst 33342 apoptosis assay, peripheral blood T cells", "assay_type": "cell-based, human", "details": "10 μM rolipram", "experimental": "Magnetic bead purified peripheral blood T cells or leukemic cells from patients with B-CLL or Sezary syndrome were cultured in media alone or with a dose titration of hydrocortisone (solid line), followed by assessment for apoptosis by Hoechst 33342 FACS analysis at 48 hours. Using the same experimental conditions, the effect of addition of 10 μM rolipram (thick dashed line) or 10 μM rolipram and 40 μM forskolin (dotted line) was also assessed. The SEM of triplicate samples is shown; where not visible, the SEM was less than 1.0%.\nCCRF-CEM cells were obtained from ATCC^27. Leukemic or normal mononuclear cells were obtained by centrifugation over Histopaque 1077 (Sigma Chemical Company, St. Louis, Mo.). For purification of T cells, whole mononuclear cells from normal subjects were incubated with magnetic beads coated with appropriate antibodies, then positively purified using a magnet (Miltenyi). […]\nHoechst 33342 and DiOC6(3) apoptosis assays were performed as previously described^22,28. […] The absorbance (O.D.) of the formazan product was determined at 492 nm using a plate reader (Titertek Multiscan Plus, Labsystems). Percent cell viability was calculated as follows: (O.D. control sample−O.D. blank)/(O.D. test sample−O.D. blank)×100. […]"}},
  "note": "pIC50: −log10 of the molar value.",
  "data": [
    {"smiles": "COc1ccc(C2CNC(=O)C2)cc1OC1CCCC1", "note": "(centres unmarked) [rolipram, 4-(3-cyclopentyloxy-4-methoxyphenyl)-2-pyrrolidone]", "values": [
      {"measurement": "pIC50", "setting": "[1]", "value": "[…]"},
      {"measurement": "effect on cAMP levels", "setting": "[2]", "value": "no effect"},
      {"measurement": "cAMP levels above that observed in untreated cells", "setting": "[3]", "value": "2.5±0.7", "unit": "fold"},
      {"measurement": "augmentation of the apoptotic effect of 1 μM hydrocortisone on T cells", "setting": "[4]", "value": "failed to augment"},
      {"measurement": "induction of apoptosis in peripheral blood T cells", "setting": "[4]", "value": "failed to induce apoptosis"}
    ]}
  ]
}
